Assays:
in vitro = settings: chlorocebus sabaeus
SARS-CoV-2 [1] = experiment: microbe, parasite or virus in culture; type: functional, organism-based, Chlorocebus sabaeus, Vero C1008; settings: Severe acute respiratory syndrome coronavirus 2, Vero C1008, 48 h
SARS-CoV-2 [2] = experiment: microbe, parasite or virus in culture; settings: Severe acute respiratory syndrome coronavirus 2, Vero C1008, 48 h
[3] = Vero E6 (Vero C1008) cells, CC50
[4] = Vero E6 (Vero C1008) cells, pCC50

SMILES | CC50 at 48 h (in vitro; [3]) | CC50 at 48 h (in vitro; [4]) | IC50 (SARS-CoV-2 [1]; read-out: IC50) | IC50 (SARS-CoV-2 [1]; read-out: pIC50 (converted)) | IC50 (SARS-CoV-2 [2]) | IC50 (SARS-CoV-2 [2]; read-out: pIC50 (converted)) | CC50 at 48 h (in vitro; vero c1008, CC50) | CC50 at 48 h (in vitro; vero c1008, pCC50)
COc1cc2c3cc1Oc1cc(ccc1O)C[C@@H]1c4c(cc(OC)c(O)c4Oc4ccc(cc4)C[C@H]3N(C)CC2)CCN1C | 11.5 µM | 11.5 µM | ~5.37 µM | ~5.37 µM | > 10 µM | > 10 µM |  | 
COc1ccc2cc1Oc1ccc(cc1)C[C@H]1c3cc(c(OC)cc3CCN1C)Oc1c(OC)c(OC)cc3c1[C@H](C2)N(C)CC3 [FANCHININ] | 5.17 µM | 5.13 µM | > 50.1 µM | > 50.1 µM | 3.98 µM | 3.98 µM |  | 
COc1ccc2c(c1)N(C[C@H](C)CN(C)C)c1ccccc1S2 [LEVOMEPROMAZINE] | 11.6 µM | 11.5 µM | > 50.1 µM | > 50.1 µM | 11.8 µM | 11.7 µM |  | 
CN(C)CC/C=C1\c2ccccc2CSc2ccccc21 [DOTHIEPIN] | 20 µM | 20 µM | > 25.1 µM | > 25.1 µM | 16.6 µM | 16.6 µM |  | 
CN1CCCC(CC2c3ccccc3Sc3ccccc32)C1 (stereo not drawn) [METHIXENE] | 10.1 µM | 10 µM | > 100 µM | > 100 µM | 9.55 µM | 9.55 µM |  | 
Fc1ccc([C@@H]2CCNC[C@H]2COc2ccc3c(c2)OCO3)cc1 [PAROXETINE] | 16.6 µM | 16.6 µM | > 100 µM | > 100 µM | 15.1 µM | 15.1 µM |  | 
CC1=C(/C=C/C(C)=C/C=C/C(C)=C/C(=O)Nc2ccc(O)cc2)C(C)(C)CCC1 [FENRETINIDE] | 5.01 µM | 5.01 µM | 2.95 µM | 2.95 µM | > 100 µM | > 100 µM |  | 
COC(=O)N[C@H](C(=O)N1CCC[C@H]1c1ncc(-c2ccc(-c3ccc(-c4cnc([C@@H]5CCCN5C(=O)[C@@H](NC(=O)OC)C(C)C)[nH]4)cc3)cc2)[nH]1)C(C)C | ~19.7 µM | ~19.5 µM | > 100 µM | > 100 µM | > 100 µM | > 100 µM |  | 
Cc1[nH]c(/C=C2\C(=O)Nc3ccccc32)c(C)c1CCC(=O)O [ORANTINIB] | > 25.1 µM | > 25.1 µM | > 25.1 µM | > 25.1 µM | ~1.78 µM | ~1.78 µM |  | 
Cc1c(CN2CCN(c3cccc(C(F)(F)F)c3)CC2)cc(-c2ccccc2)n1NC(=O)c1ccncc1 [SUDOTERB] | ~14.3 µM | ~14.1 µM | > 100 µM | > 100 µM | > 100 µM | > 100 µM |  | 
CCCCN(CCCC)CCC(O)c1cc2c(Cl)cc(Cl)cc2c2cc(C(F)(F)F)ccc12 (stereo not drawn) [HALOFANTRINE] | 11.5 µM | 11.5 µM | ~9.12 µM | ~9.12 µM | 9.55 µM | 9.55 µM |  | 
CCCCCCC(C)(C)c1cc(O)c([C@H]2CC(=O)[C@H]3C[C@@H]2C3(C)C)c(OC(=O)/C=C/C(=O)O)c1 [PRS-211375] | 7.67 µM | 7.59 µM | > 50.1 µM | > 50.1 µM | > 100 µM | > 100 µM |  | 
CC(C)N1CCN(c2ccc(OCC3COC(Cn4cncn4)(c4ccc(Cl)cc4Cl)O3)cc2)CC1 (stereo not drawn) [TERCONAZOLE] | ~10 µM | ~10 µM | > 12.6 µM | > 12.6 µM | 16.6 µM | 16.6 µM |  | 
NC(=O)C1(N2CCCCC2)CCN(CCCN2c3ccccc3CCc3ccccc32)CC1 [CARPIPRAMINE] | 8.61 µM | 8.51 µM | > 100 µM | > 100 µM | 8.91 µM | 8.91 µM |  | 
COc1ccc([C@@H](Cc2ccncc2)c2ccccc2)cc1OC1CCCC1 | 23.4 µM | 23.4 µM | > 100 µM | > 100 µM | > 100 µM | > 100 µM |  | 
Cc1cc(O[C@@H](CCC(F)(F)F)c2ccc(C(=O)NCCC(=O)O)cc2)cc(C)c1-c1ccc(C(C)(C)C)cc1 [ADOMEGLIVANT] | ~10.4 µM | ~10.2 µM | > 6.31 µM | > 6.31 µM | > 10 µM | > 10 µM |  | 
O=C(O)CCc1nc(-c2ccccc2)c(-c2ccccc2)o1 [OXAPROZIN] | > 50.1 µM | > 50.1 µM | > 50.1 µM | > 50.1 µM | 11.8 µM | 11.7 µM |  | 
CN1CCC(OC(=O)C(Oc2ccc(Cl)cc2)Oc2ccc(Cl)cc2)CC1 [LIFIBRATE] | 38 µM | 38 µM | > 100 µM | > 100 µM | > 100 µM | > 100 µM |  | 
C#CC1(OC(C)=O)CCC2C3CCC4=C/C(=N/O)CCC4C3CCC21CC (stereo not drawn) | 20.9 µM | 20.9 µM | > 100 µM | > 100 µM | > 100 µM | > 100 µM |  | 

SMILES | CC50 at 48 h (in vitro; [3]) | CC50 at 48 h (in vitro; [4]) | IC50 (SARS-CoV-2 [1]; read-out: IC50) | IC50 (SARS-CoV-2 [1]; read-out: pIC50 (converted)) | IC50 (SARS-CoV-2 [2]) | IC50 (SARS-CoV-2 [2]; read-out: pIC50 (converted)) | CC50 at 48 h (in vitro; vero c1008, CC50) | CC50 at 48 h (in vitro; vero c1008, pCC50)
CN(C)CC/C=C1/c2ccccc2Sc2ccc(Cl)cc21 [CHLORPROTHIXENE] | 13.8 µM | 13.8 µM | > 100 µM | > 100 µM | 7.08 µM | 7.08 µM |  | 
O=C1CC2(CCCC2)CC(=O)N1CCCCN1CCN(c2nsc3ccccc23)CC1 [TIOSPIRONE] | 24.6 µM | 24.5 µM | > 100 µM | > 100 µM | > 100 µM | > 100 µM |  | 
O=C(N[C@H]1CN2CCC1CC2)c1cc2cccc(Cl)c2s1 [ENCENICLINE] | 20.9 µM | 20.9 µM | > 100 µM | > 100 µM | > 100 µM | > 100 µM |  | 
CC(C)CN(C[C@@H](O)[C@H](Cc1ccccc1)NC(=O)O[C@H]1CO[C@H]2OCC[C@H]21)S(=O)(=O)c1ccc2nc(NC3CCN(C4CCCC4)CC3)sc2c1 [TMC 310911] | ~13 µM | ~12.9 µM | ~9.55 µM | ~9.55 µM | 3.94 µM | 3.89 µM |  | 
c1ccc(C(c2ccccc2)N2CCN(CCCC3(c4ccccc4)OCCO3)CC2)cc1 [DOTARIZINE] | 17.4 µM | 17.4 µM | 10 µM | 10 µM | > 20 µM | > 20 µM |  | 
CNCC(O)CC12CCC(c3ccccc31)c1ccccc12 (stereo not drawn) [OXAPROTILINE] | 28.2 µM | 28.2 µM | > 100 µM | > 100 µM | > 100 µM | > 100 µM |  | 
CC(=O)[C@@]12OC(C)(c3ccccc3)O[C@@H]1CC1C3CCC4=CC(=O)CCC4(C)C3CCC12C (stereo partly drawn) | 15.5 µM | 15.5 µM | > 12.6 µM | > 12.6 µM | > 100 µM | > 100 µM |  | 
CNCC[C@@H](Oc1cccc2ccccc12)c1cccs1 [(R)-DULOXETINE] |  |  | > 100 µM | > 100 µM | 7.24 µM | 7.24 µM | 16.2 µM | 16.2 µM
Cc1ccc(C(=O)Nc2ccc(CN3CCN(C)CC3)c(C(F)(F)F)c2)cc1C#Cc1cnc2cccnn12 [PONATINIB] | 0.989 µM | 0.977 µM | > 100 µM | > 100 µM | > 100 µM | > 100 µM |  | 
O=C(NO)c1ccc(C2=Nc3ccccc3Oc3ccccc32)cc1 | 1.55 µM | 1.55 µM | > 100 µM | > 100 µM | > 100 µM | > 100 µM |  | 
COc1ccc2c(c1)CCC(c1ccccc1)=C2c1ccc(OCCN2CCCC2)cc1 [NAFOXIDINE] | 3.85 µM | 3.8 µM | > 100 µM | > 100 µM | > 100 µM | > 100 µM |  | 
C#C[C@]1(O)CCC2C3CCc4cc(OC5CCCC5)ccc4C3CCC21C (stereo partly drawn) | 7.59 µM | 7.59 µM | > 100 µM | > 100 µM | 8.71 µM | 8.71 µM |  | 
CN1CCN(CCCN2c3ccccc3Sc3ccccc32)CC1 [PERAZINE] | 14.6 µM | 14.5 µM | > 100 µM | > 100 µM | 14 µM | 13.8 µM |  | 
Cc1c(O)cccc1C(=O)N[C@@H](CSc1ccccc1)[C@H](O)CN1C[C@H]2CCCC[C@H]2C[C@H]1C(=O)NC(C)(C)C | 11.2 µM | 11.2 µM | ~3.97 µM | ~3.98 µM | 5.22 µM | 5.25 µM |  | 
Nc1nc2nn[nH]c2c(=O)[nH]1 [8-AZAGUANINE] | 23.7 µM | 23.4 µM | > 50.1 µM | > 50.1 µM | > 50.1 µM | > 50.1 µM |  | 
CC(=O)c1ccc2c(c1)N(CCCN1CCN(CCO)CC1)c1ccccc1S2 [ACETOPHENAZINE] | ~14.6 µM | ~14.5 µM | > 100 µM | > 100 µM | > 100 µM | > 100 µM |  | 
CCn1cc(-c2ccnc3[nH]c(-c4cccc(CN(C)C)c4)cc23)c(-c2ccc(NC(=O)N(C)C)cc2)n1 [GSK-1070916] | 9.33 µM | 9.33 µM | > 100 µM | > 100 µM | > 100 µM | > 100 µM |  | 
Cc1cccc(C)c1OCC(=O)N[C@@H](Cc1ccccc1)[C@@H](O)C[C@H](Cc1ccccc1)NC(=O)[C@H](C(C)C)N1CCCNC1=O [LOPINAVIR] | ~33.7 µM | ~33.9 µM | ~15.7 µM | ~15.5 µM | 22.9 µM | 22.9 µM |  | 
CCC1(CC)C(=O)NCC(C)C1=O (stereo not drawn) [METHYPRYLON] | > 25.1 µM | > 25.1 µM | > 25.1 µM | > 25.1 µM | 18.4 µM | 18.2 µM |  | 
